Assay results: article PMC12153338, “Resistance to oxyimino-cephalosporins conferred by an alternative mechanism of hydrolysis by the Acinetobacter-derived cephalosporinase-33 (ADC-33), a class C β-lactamase present in carbapenem-resistant Acinetobacter baumannii (CRAb)” (mBio, 2025)
Values after ≈ are worked out from the molar mass of the structure shown.

Columns and labels:
[1] = system: ADC-30 in DH10B Escherichia coli; test: MIC by broth microdilution, ADC-30 in DH10B E. coli; assay type: cell-based; conditions: DH10B E. coli expressing ADC-30 (non-Adup) from pBCSK−, FDC in iron-depleted cation-adjusted MH broth, mode of triplicate
Experimental: (§1) Susceptibility testing to standard antibiotics was performed by broth microdilution according to 2024 Clinical and Laboratory Standards Institute (CLSI) guidelines ([38]). MICs for FDC were done in iron-depleted cation-adjusted Mueller-Hinton (MH) broth according to CLSI methods. All MICs were interpreted according to the 2024 CLSI guidelines ([38]). MICs are done in triplicate, and the mode MIC value is reported.
(§2) blaADC-7 pBCSK− was cloned and expressed in E. coli DH10B cells as previously described for MIC determinations ([3]). The pBCSK-non-inducible phagemid vector has a chloramphenicol resistance gene used to aid selection. All other blaADC variants were synthesized by GenScript according to the blaADC-7 pBCSK− strategy, cloning into the XbaI/BamHI sites of the pBCSK− vector ([5]).

[2] = system: ADC-73 in DH10B Escherichia coli; test: MIC by broth microdilution, ADC-73 in DH10B E. coli; assay type: cell-based; conditions: DH10B E. coli expressing ADC-73 (non-Adup) from pBCSK−, FDC in iron-depleted cation-adjusted MH broth, mode of triplicate
Experimental: as §1, §2

[3] = system: ADC-143 in DH10B Escherichia coli; test: MIC by broth microdilution, ADC-143 in DH10B E. coli; assay type: cell-based; conditions: DH10B E. coli expressing ADC-143 (non-Adup) from pBCSK−, FDC in iron-depleted cation-adjusted MH broth, mode of triplicate
Experimental: as §1, §2

[4] = system: ADC-217 in DH10B Escherichia coli; test: MIC by broth microdilution, ADC-217 in DH10B E. coli; assay type: cell-based; conditions: DH10B E. coli expressing ADC-217 (non-Adup) from pBCSK−, FDC in iron-depleted cation-adjusted MH broth, mode of triplicate
Experimental: as §1, §2

[5] = system: ADC-172 in DH10B Escherichia coli; test: MIC by broth microdilution, ADC-172 in DH10B E. coli; assay type: cell-based; conditions: Escherichia coli; DH10B E. coli expressing ADC-172 (Adup) from pBCSK−; FDC in iron-depleted cation-adjusted MH broth; mode of triplicate; read-out: MIC
Experimental: as §1, §2

[6] = system: ADC-218 in DH10B Escherichia coli; test: MIC by broth microdilution, ADC-218 in DH10B E. coli; assay type: cell-based; conditions: DH10B E. coli expressing ADC-218 (Adup) from pBCSK−, FDC in iron-depleted cation-adjusted MH broth, mode of triplicate
Experimental: as §1, §2

[7] = system: ADC-219 in DH10B Escherichia coli; test: MIC by broth microdilution, ADC-219 in DH10B E. coli; assay type: cell-based; conditions: DH10B E. coli expressing ADC-219 (Adup) from pBCSK−, FDC in iron-depleted cation-adjusted MH broth, mode of triplicate
Experimental: as §1, §2

ADC-33 [8] = target: T1, ADC-33 (Acinetobacter baumannii, UniProt A7Y407); test: Steady-state hydrolysis kinetics, ADC-33; assay type: biochemical
Experimental: Steady-state kinetic parameters were determined by combining pure enzyme with antibiotic substrates in 50 mM NaH2PO4, pH 7.4, at room temperature. Changes in absorbance were measured on the Cary 60 UV−Vis spectrophotometer (Agilent Technologies) and converted to velocity using the change in extinction coefficient specific to nitrocefin (NCF) (ε482 = 17,400 M^−1·cm^−1), CAZ (ε260 8,660 M^−1·cm^−1), and cefiderocol (ε259 9,430 M^−1·cm^−1). The concentration of enzyme ranged from 0.1 to 1.0 µM, and all kinetic experiments were performed at least in triplicate. Initial velocities were fitted to the Michaelis-Menten equation, yielding kcat and KM values. The standard error for kcat/KM values was generated by factoring in the larger of the proportional standard errors for the individual kcat value and the KM value. For ADC/substrate combinations in which the KM was too large to accurately determine both kcat and KM values, the initial velocities at kcat/KM values were calculated from linear fits of vo in low [S] ranges (<0.08 * KM).

ADC-30 [9] = target: T2, ADC-30 (Acinetobacter baumannii, UniProt A7XM81); test: Competition kinetics with nitrocefin (Ki), ADC-30; assay type: biochemical; conditions: 3 min pre-incubation, Cheng-Prusoff corrected
Experimental: (§3) For inhibition kinetics, utilizing NCF as a colorimetric substrate of ADCs, the inhibition constant (Ki) of CAZ and FDC with ADCs was determined using competition kinetics as previously described ([5]). After a 3 min pre-incubation of the enzyme (2 nM) with increasing concentration of the inhibitor, measurements of the initial velocities were performed with the addition of 100–200 µM NCF (twofold of the experimentally determined KM value). To determine the average velocities (v0), data from three experiments were fit to the followingequation: […]
(§4) where vu represents the NCF uninhibited velocity and IC50 represents the inhibitor concentration that results in a 50% reduction of vu. The Ki value was corrected for the NCF affinity (KM values for each ADC) with the Cheng-Prusoff ([5]) equation: […]
(§5) The standard error for Ki values was generated by factoring in the larger of the proportional standard errors for the individual IC50 value and the KM -NCF value.

ADC-73 = ADC-73 (Acinetobacter baumannii, UniProt A0A059ZDI2); test: Competition kinetics with nitrocefin (Ki), ADC-73; assay type: biochemical; conditions: 3 min pre-incubation, Cheng-Prusoff corrected
Experimental: as §3, §4, §5

ADC-143 = ADC-143 (Acinetobacter baumannii, UniProt Q6DRA1, Q144K, form not given); test: Competition kinetics with nitrocefin (Ki), ADC-143; assay type: biochemical; conditions: 3 min pre-incubation, Cheng-Prusoff corrected
Experimental: as §3, §4, §5

ADC-217 = ADC-217 (Acinetobacter baumannii, UniProt Q6DRA1, V286E, form not given); test: Competition kinetics with nitrocefin (Ki), ADC-217; assay type: biochemical; conditions: 3 min pre-incubation, Cheng-Prusoff corrected
Experimental: as §3, §4, §5

ADC-30 [10] = target: T2, ADC-30; test: Thermal denaturation by circular dichroism, ADC-30; assay type: binding; conditions: ADC-30 12 µM, 1 mM antibiotic, PBS pH 7.4
Experimental: (§6) For thermal denaturation, protein samples were monitored for helical content by circular dichroism in the far-UV region at 210 and 220 nm using a Jasco J-815 spectrometer (Easton, MD) with a Peltier-effect temperature controller, as previously described ([41]). Enzyme concentrations were 12 µM in phosphate-buffered saline (PBS) pH 7.4. The thermodynamic stability of apoADC-30 and ADC-33, and with 1 mM FDC and CAZ, was determined from equilibrium unfolding curves. With the assumption of a reversible two-state transition, we determined the Tm at the midpoint of equilibrium folding. Thermal denaturation experiments were done in duplicate under the same conditions, with each data point representing the average of three successive scans, and the Tm values are consistent with ±1°C variation.

ADC-33 [11] = target: T1, ADC-33; test: Thermal denaturation by circular dichroism, ADC-33; assay type: binding; conditions: ADC-33 12 µM, 1 mM antibiotic, PBS pH 7.4
Experimental: as §6

[12] = system: ADC variants in DH10B Escherichia coli; test: MIC, statements across ADC variants in E. coli; assay type: cell-based
Experimental: as §1, §2

ADC-33 [13] = target: T1, ADC-33; conditions: hydrolysis by ADC-33; previously determined; cited from earlier work

Question: Which results are given for `CC(C)(O/N=C(\C(=O)N[C@@H]1C(=O)N2C(C(=O)[O-])=C(C[n+]3ccccc3)CS[C@H]12)c1csc(N)n1)C(=O)O` [CAZ, ceftazidime]?
Answer: MIC [1]: 64 µg/mL (≈ 117 µM); MIC [2]: 64 µg/mL (≈ 117 µM); MIC [3]: 256 µg/mL (≈ 468 µM); MIC [4]: 128 µg/mL (≈ 234 µM); MIC [5]: 1020 µg/mL (≈ 1870 µM); MIC [6]: 2050 µg/mL (≈ 3750 µM); MIC [7]: 64 µg/mL (≈ 117 µM); fold higher kcat/KM for CAZ versus FDC (ADC-33 [8]): ~ 10 fold; Ki (ADC-30 [9]): 3.23 ± 0.31 µM; Ki (ADC-73): 8.72 ± 0.74 µM; Ki (ADC-143): 47.8 ± 3.34 µM; Ki (ADC-217): 0.26 ± 0.014 µM; change of Tm of the β-lactamase on addition of antibiotic (ADC-30 [10]): does not alter the Tm; change of Tm of the β-lactamase on addition of antibiotic (ADC-33 [11]): does not alter the Tm; MIC [12]: ≥ 1020 µg/mL; kcat (ADC-33 [13]): 3.71 s⁻¹
